{"source": "patent US20150004617A1", "about": "“DNA Polymerase Activity Assays and Methods Enabling Determination of Viable Microbes” (Zeus Scientific, Inc., priority 2012, published 2015)", "key": {"[1]": {"test_system": "E. coli-derived DNA polymerase activity", "test": "Bead lysis-coupled DPE-PCR, ddCTP termination of microbial DNA polymerase (E. coli)", "assay_type": "biochemical, Escherichia coli", "details": "reaction mix with 50 μM ddCTP instead of dCTP; crude bead mill lysate", "description": "The qPCR reaction master mix was prepared using the following components: LightCycler 480 Master Mix (Roche cat #04707494001), 333 nM of each primer, 166 nM Target probe (FAM), 166 nM internal control probe (TxRed), and 1.2 U of UDG (Bioline cat #BIO-20744). As a tool to monitor PCR inhibition, each qPCR reaction also included 40 copies of competitive internal control DNA. For each qPCR reaction, 3 μL of DNA polymerase reaction were added to 27 μL of master mix and a two-step qPCR was run on a SmartCycler (Cepheid, Sunnyvale Calif.) as follows: Initial incubation of 40° C. for 10 minutes and 50° C. for 10 minutes and at 95° C. for 5 minutes (to activate Taq), followed by 45 cycles of 5 s denaturation at 95° C. and 20 s annealing/extension at 65° C. Cycle threshold (Ct) values were generated automatically by the SmartCycler software using 2nd derivative analysis of the emerging qPCR curves.\nS. aureus and E. coli cultures were grown to an OD600 of 1.0±0.2 (approximately 1×10^9 cfu/mL.) For each organism, 1 mL of culture was pelleted and washed three times in T.E. Bacterial suspensions were serially diluted in T.E., and 5 μL of each stock were added to bead lysis-reactions containing 50 μL of lysis-reaction buffer. […]"}, "DNA polymerase I": {"target": "T1, DNA polymerase I (Escherichia coli, UniProt P00582)", "T1 construct": "purchased New England Biolabs M0209", "test": "DPE-PCR assay with purified DNA polymerase, ddCTP termination", "assay_type": "biochemical", "details": "dNTP mix with 50 μM ddCTP instead of 50 μM dCTP; 2×10^−9 U DNA polymerase I; 37° C., 20 minutes", "description": "DNA Pol I (NEB cat #M0209L), Klenow (NEB cat #M0210S) and Klenow exo(−) (NEB cat #M0212S) were diluted to the indicated U/μL stock in Tris EDTA (T.E.) pH 8.0. To begin, 2 μL of DNA polymerase stock at each concentration were placed into a 50 μL polymerase assay mixture containing the following components: 50 μM dNTP, 20 mM Tris pH 8.0, 10 mM ammonium sulfate, 10 mM potassium chloride, 2 mM magnesium sulfate, 1% BSA, 0.1% Triton, 0.1% Tween, and 0.001 μM pre-annealed DNA substrate. Reactions were vortexed briefly and placed at 37° C. for 20 minutes. After 20 minutes, 3 μL of each reaction were immediately placed into a quantitative PCR (qPCR) reaction. Detection by qPCR\nThe qPCR reaction master mix was prepared using the following components: LightCycler 480 Master Mix (Roche cat #04707494001), 333 nM of each primer, 166 nM Target probe (FAM), 166 nM internal control probe (TxRed), and 1.2 U of UDG (Bioline cat #BIO-20744). As a tool to monitor PCR inhibition, each qPCR reaction also included 40 copies of competitive internal control DNA. […]"}}, "data": [{"smiles": "Nc1ccn([C@H]2CC[C@@H](COP(=O)(O)OP(=O)(O)OP(=O)(O)O)O2)c(=O)n1", "note": "[ddCTP, dideoxyCTP]", "values": [{"measurement": "DPE-PCR signal derived from E. coli cfu spikes", "setting": "[1]", "value": "blocked the generation of signal derived from E. coli cfu spikes"}, {"measurement": "DPE-PCR assay signal (DNA polymerase extension activity)", "setting": "DNA polymerase I", "value": "eliminates signal generated by DNA polymerase I"}]}]}
